The compounds below were run against T1, TLR7 (Homo sapiens, UniProt Q9NYK1) (assay: huPBMC TLR7 Antagonist IFNα Assay). Details: human PBMCs stimulated with ssRNA40 10 μg/mL (DOTAP), 14-16 hrs; IFNα2b AlphaLISA read-out.
T1 construct: Fresh blood was collected from normal human donors; endogenous in cells; host or cells: human PBMCs from fresh donor blood
T1 sequence (Q9NYK1 27-1049): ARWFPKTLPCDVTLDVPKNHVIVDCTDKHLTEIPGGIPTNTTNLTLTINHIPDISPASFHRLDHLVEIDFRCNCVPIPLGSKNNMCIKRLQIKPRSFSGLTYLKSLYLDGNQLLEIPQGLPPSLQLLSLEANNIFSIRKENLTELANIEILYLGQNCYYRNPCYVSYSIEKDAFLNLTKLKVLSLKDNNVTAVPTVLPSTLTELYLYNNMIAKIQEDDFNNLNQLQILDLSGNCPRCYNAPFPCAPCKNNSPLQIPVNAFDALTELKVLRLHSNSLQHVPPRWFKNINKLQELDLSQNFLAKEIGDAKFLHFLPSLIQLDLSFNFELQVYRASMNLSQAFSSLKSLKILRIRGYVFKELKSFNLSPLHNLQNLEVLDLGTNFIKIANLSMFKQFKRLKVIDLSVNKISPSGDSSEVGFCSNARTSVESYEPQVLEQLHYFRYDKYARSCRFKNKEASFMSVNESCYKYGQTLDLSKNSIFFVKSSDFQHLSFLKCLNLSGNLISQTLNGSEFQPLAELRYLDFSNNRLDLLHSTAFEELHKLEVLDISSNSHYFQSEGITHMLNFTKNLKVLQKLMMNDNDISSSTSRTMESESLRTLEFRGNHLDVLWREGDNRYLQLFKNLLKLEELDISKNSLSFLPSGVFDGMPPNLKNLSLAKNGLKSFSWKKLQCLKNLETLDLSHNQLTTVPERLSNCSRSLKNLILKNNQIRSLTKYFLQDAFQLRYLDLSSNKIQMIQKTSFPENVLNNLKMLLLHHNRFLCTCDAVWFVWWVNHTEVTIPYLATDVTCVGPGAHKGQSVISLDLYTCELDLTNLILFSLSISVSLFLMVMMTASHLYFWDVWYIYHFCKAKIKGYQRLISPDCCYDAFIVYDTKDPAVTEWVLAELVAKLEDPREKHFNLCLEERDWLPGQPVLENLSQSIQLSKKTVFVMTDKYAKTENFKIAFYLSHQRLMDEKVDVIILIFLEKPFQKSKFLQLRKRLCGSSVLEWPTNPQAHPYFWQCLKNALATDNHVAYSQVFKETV
Format: cell-based
In short: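 Human PBMCs from fresh donor blood (150,000 cells/well) stimulated 14–16 h at 37 °C with DOTAP-complexed ssRNA40 (final 1 μg/ml for TLR8, 10 μg/mL for TLR7) or ODN2216 (final 0.3 μM, TLR9), 0.25% DMSO, ten-point 1/3 compound dilutions. Supernatant IL-6 read by HTRF (TLR8); IFNα by IFNα2b AlphaLISA (TLR7/TLR9).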

Row | SMILES | IC50
1 | [2H]C([2H])([2H])N(CC(=O)NC12CCC(Cn3nc(C)c4c3CCN(c3cc(C)nc5c3cnn5C)C4)(CC1)CC2)C([2H])([2H])[2H] [compound 134, 2-(bis(trideuteromethyl)amino)-N-(4-((5-(1,6-dimethyl-1H-pyrazolo[3,4-b]pyridin-4-yl)-3-methyl-4,5,6,7-tetrahydro-1H-pyrazolo[4,3-c]pyridin-1-yl)methyl)bicyclo[2.2.2]octan-1-yl)acetamide] | 1 nM
2 | CNCCC(=O)NC12CCC(Cn3nc(C)c4c3CCN(c3cc(C)nc5c3cnn5C)C4)(CC1)CC2 [compound 142, N-(4-((5-(1,6-dimethyl-1H-pyrazolo[3,4-b]pyridin-4-yl)-3-methyl-4,5,6,7-tetrahydro-1H-pyrazolo[4,3-c]pyridin-1-yl)methyl)bicyclo[2.2.2]octan-1-yl)-3-(methylamino)propanamide] | 47 nM
3 | Cc1cc(N2CCc3c(c(C)nn3CC34CCC(NC(=O)OC(C)(C)C)(CC3)C4)C2)c2cnn(C)c2n1 [compound 148, tert-butyl (4-((5-(1,6-dimethyl-1H-pyrazolo[3,4-b]pyridin-4-yl)-3-methyl-4,5,6,7-tetrahydro-1H-pyrazolo[4,3-c]pyridin-1-yl)methyl)bicyclo[2.2.1]heptan-1-yl)carbamate] | 54 nM

Second part, the compound after the results:

Row | IC50 | SMILES
4 | 72 nM | Cc1cc(N2CCc3c(c(C)nn3CC34CCC(NCC5(CO)COC5)(CC3)CC4)C2)c2cnn(C)c2n1 [compound 137, (3-(((4-((5-(1,6-dimethyl-1H-pyrazolo[3,4-b]pyridin-4-yl)-3-methyl-4,5,6,7-tetrahydro-1H-pyrazolo[4,3-c]pyridin-1-yl)methyl)bicyclo[2.2.2]octan-1-yl)amino)methyl)oxetan-3-yl)methanol]
5 | 32 nM | CCn1ncc2c(N3CCc4c(c(C)nn4CC45CCC(NC(=O)[C@@H]6COCCN6)(CC4)CC5)C3)cc(C)nc21 [compound 141, (S)-N-(4-((5-(1-ethyl-6-methyl-1H-pyrazolo[3,4-b]pyridin-4-yl)-3-methyl-4,5,6,7-tetrahydro-1H-pyrazolo[4,3-c]pyridin-1-yl)methyl)bicyclo[2.2.2]octan-1-yl)morpholine-3-carboxamide]
6 | 41 nM | Cc1cc(N2CCc3c(c(C)nn3CC34CCC(NC5CCC5)(CC3)CO4)C2)c2cnn(C)c2n1 [compound 143, N-cyclobutyl-1-((5-(1,6-dimethyl-1H-pyrazolo[3,4-b]pyridin-4-yl)-3-methyl-4,5,6,7-tetrahydro-1H-pyrazolo[4,3-c]pyridin-1-yl)methyl)-2-oxabicyclo[2.2.2]octan-4-amine]
7 | 73 nM | Cc1nn(CC23CCC(NC4CCC4)(CC2)CC3)c2c1CN(c1ccnc(-c3ccccc3)c1)CC2 [compound 144, N-cyclobutyl-4-((3-methyl-5-(2-phenylpyridin-4-yl)-4,5,6,7-tetrahydro-1H-pyrazolo[4,3-c]pyridin-1-yl)methyl)bicyclo[2.2.2]octan-1-amine]

— patent publication US20240376099A1, “COMPOUNDS AND COMPOSITIONS AS INHIBITORS OF ENDOSOMAL TOLL-LIKE RECEPTORS” (Novartis AG, priority 2016, published 2024)
